Patent US8415393B2, “Anti-bacterial drug targeting of genome maintenance interfaces” (Wisconsin Alumni Research Foundation, priority 2007, dated 2013)
Substitutions are numbered along the chain they refer to. Names may count otherwise. Converted amounts (≈) assume the structure as drawn. Like-named read-outs stand apart in the source and are kept apart here. Where no end group is shown, it is not given here. fluorescein = fluorescein moiety attached to the N-terminus of the peptide (N-terminal fluorescein label)

B1: ExoI Glu150 Ala variant (enzyme)
chain: MMNDGKQQSTFLFHDYETFGTHPALDRPAQFAAIRTDSEFNVIGEPEVFYCKPADDYLPQPGAVLITGITPQEARAKGENEAAFAARIHSLFTVPKTCILGYNNVRFDDEVTRNIFYRNFYDPYAWSWQHDNSRWDLLDVMRACYALRPAGINWPENDDGLPSFRLEHLTKANGIEHSNAHDAMADVYATIAMAKLVKTRQPRLFDYLFTHRNKHKLMALIDVPQMKPLVHVSGMFGAWRGNTSWVAPLAWHPENRNAVIMVDLAGDISPLLELDSDTLRERLYTAKTDLGDNAAVPVKLVHINKCPVLAQANTLRPEDADRLGINRQHCLDNLKILRENPQVREKVVAIFAEAEPFTPSDNVDAQLYNGFFSDADRAAMKIVLETEPRNLPALDITFVDKRIEKLLFNYRARNFPGTLDYAEQQRWLEHRRQVFTPEFLQGYADELQMLVQQYADDKEKVALLKALWQYAEEIV
notes: also called E150A; Glu150 variant
B2: ExoI Lys227 Ala variant (enzyme)
chain: B1 chain with A150E, K227A
notes: basic ridge variant; also called K227A; Lys227 variant
B3: ExoI Glu318 Ala variant (enzyme)
chain: B1 chain with A150E, E318A
notes: also called E318A; Glu318 variant
B4: WT peptide (WMDFDDDIPF, without a fluorescent moiety) (peptide)
peptide: WMDFDDDIPF
notes: also called unlabeled peptide; SSB-Ct peptide

Tests used:
[1] = target: T1, Exonuclease I/SSB-Ct complex (Escherichia coli, UniProt P04995); assay: Fluorescence polarization competition: inhibition of fluorescein-SSB C-terminal peptide binding to Exonuclease I (HTS and Ki determination); settings: FIG. 7, unlabeled peptide competition
T1 sequence (P04995 whole entry, looked up): B1 chain with A150E
Method: (§1) Peptide binding assays were performed in solution, using the peptides from above, and Exonuclease I, in the absence or presence of various compounds. Different amounts of Exonuclease I (ExoI) were used in the peptide binding assays. […] Fluorescence polarization (FP) was measured at 25° C. in triplicate; the average FP value was plotted with standard deviation of the mean shown as error.
(§2) Concentrated Exonuclease I was dialyzed overnight into 2 liters dilution buffer (DB) (20 mM Tris pH 8.0 HCl, 100 mM NaCl, 1 mM MgCl2, and 1 mM Beta-Mercaptoethanol). […] After sitting at room temperature for 5 min, a liquid handling system was used to aliquot this solution into 384 well plates providing 30 microliters/well. One microliter of 1 mM compound was then added. The screened compounds were obtained from the ChemBridge DIVERSet library (ChemBridge Corporation, San Diego, Calif.), from the Maybridge HitFinder library (Thermo Fisher Scientific, Waltham, Mass.), from the ChemDiv library (Chemical Diversity Labs, San Diego, Calif.), or from the Known Bioactive Library—KBA01.
(§3) The FP (fluorescence polarization) values for each well were read using a (plate reader) 5 minutes after compound addition.
(§4) Increasing amounts of compound were titrated into peptide protein mixture until FP values were lowered to values given by only fluorescently labeled peptide alone. Ki values were determined using the Ki calculator for fluorescence-based competitive binding assays of Prof. Shaomeng Wang, University of Michigan (Nikolovska-Coleska et al., 2004, Anal. Biochem. 332: 261-273).

[2] = target: Exonuclease I/SSB-Ct complex (Escherichia coli, UniProt P04995); assay: as above
Method: as §1, §2, §3, §4
Target sequence in this assay (P04995 whole entry, one chain of several): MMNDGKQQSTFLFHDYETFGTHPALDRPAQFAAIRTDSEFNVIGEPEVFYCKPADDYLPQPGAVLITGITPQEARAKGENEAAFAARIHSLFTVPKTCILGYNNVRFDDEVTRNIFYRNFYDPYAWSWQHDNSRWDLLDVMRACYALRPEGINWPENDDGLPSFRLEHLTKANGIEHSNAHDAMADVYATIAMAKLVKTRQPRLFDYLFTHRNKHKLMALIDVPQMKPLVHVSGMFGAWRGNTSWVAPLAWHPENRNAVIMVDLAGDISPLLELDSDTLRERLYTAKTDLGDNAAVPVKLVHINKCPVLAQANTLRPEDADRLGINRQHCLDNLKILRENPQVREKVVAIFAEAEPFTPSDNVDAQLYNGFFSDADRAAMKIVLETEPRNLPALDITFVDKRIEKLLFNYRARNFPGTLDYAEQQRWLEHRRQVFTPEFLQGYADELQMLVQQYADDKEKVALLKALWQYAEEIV

[3] = test system: E. coli 4213 (imp4213, compromised cell wall); assay: microbe, parasite or virus in culture; assay type: cell-based; settings: Escherichia coli
Method: The compromised cell wall allows the chemicals to pass through it more readily.
(§5) 100 μL of LB containing E. coli 1655, E. coli 4213, or S. aureus at A ˜0.05 OD 600 was aliquoted in 96 well plates. One μL of compound in DMSO was added to final concentrations given. Plates were incubated at 37° C. with shaking at 250 RPM. Rate of growth was calculated by determining the average change in OD/hour that took place between hours 3 and 7 (log growth phase). The graphs shown herein are plots of this bacterial growth rate (change in OD/h) against inhibitor concentration in μM.

[4] = test system: Staphylococcus aureus 12598; assay: Bacterial growth assay in LB liquid media, S. aureus; assay type: cell-based; settings: Staphylococcus aureus, 12598
Method: as §5

E. coli (imp4213) = assay: MIC on solid media, E. coli; assay type: cell-based; settings: Escherichia coli, read-out: MIC (E. coli)
B. subtilis = assay: Growth on solid media (MIC; agar plates with compound), B. subtilis; assay type: cell-based, Bacillus subtilis; settings: for MIC / growth on agar plates: Bacillus subtilis; for MIC: solid media, B. subtilis; for Bactericidal for B. subtilis: Table 3 info column; for growth on agar plates: 100 μM compound in agar
Method: (§6) A number of the tested candidate compounds had profound inhibitory effects on bacterial growth. In addition, it was discovered that the identified drug compounds can slow the growth of a number of other Gram-positive bacterial species. For example, the growth of Bacillus subtilis and Enterococcus faecalis was inhibited when these bacteria were grown on agar plates containing 100 μM of either compound 9 or compound 10.

[5] = test system: HT-29 (human colorectal adenocarcinoma) cells; assay: Mammalian cell toxicity, CellTiter-Glo cell viability assay; assay type: cell-based
Method: The toxicity of the identified antimicrobial candidate compounds was tested using human colorectal adenocarcinoma cells in vitro. […] The mammalian cells were tested using a CellTiter-Glo cell viability assay (Promega, Madison, Wis.).

red blood cells = assay: In vitro hemolysis; assay type: cell-based; settings: for % hemolysis at given concentration: 1 hour; for Hemolysis: Table 3, minimum concentration necessary to lyse red blood cells
Method: The identified small molecules were incubated with red blood cells to see what percentage of cells would lyse after 1 hour. Estimated hemolysis data are due to problem with reading absorbance, when the compound absorbs at the same wavelength as heme or if the compound precipitates. In such instances it is difficult to quantitate the absorbance readings; however, visual determination of how many cells have lysed can then be performed, which provides an estimate of cell lysis.

ExoI = target: T2, ExoI (Escherichia coli, UniProt P04995); assay type: binding; settings: FIG. 26A
T2 construct: made in house

[6] = target: Escherichia coli Exonuclease I (Escherichia coli) (UniProt P04995); assay: cell-based or functional assay
[7] = target: ExoI Arg316 Ala variant (Escherichia coli) (UniProt P04995); assay: cell-based or functional assay
Enterococcus faecalis = assay: Growth on agar plates containing compound, Enterococcus faecalis; assay type: cell-based; settings: 100 μM compound in agar
Method: as §6

Deinococcus radiodurans = assay: Growth on agar plates containing compound, Deinococcus radiodurans; assay type: cell-based; settings: tested in a similar manner (100 μM in agar)
Method: as §6

[8] = target: Topoisomerase III (TopoIII)/C-terminal tail of E. coli SSB (Escherichia coli, UniProt P14294); assay: Topoisomerase III peptide binding (fluorescence anisotropy); settings: 100 μM final concentration, 1% DMSO
Method: TopoIII was titrated into 10 nM fluorescent peptide, as described above for the ExoI binding assays. The buffer conditions for this binding assay were: 300 mM NaCl, 20 mM Tris pH 8.0, 10% Glycerol, 1 mM BME (Beta-Mercaptoethanol), and 1% DMSO. Concentrations of TopoIII used are given on the graph in FIG. 24. Changes in anisotropy upon binding were read using PanVera Beacon 2000 FP.
Either unlabeled peptide or various compounds were then added to a final concentration of 100 μM. These compounds and unlabeled peptide were dissolved in DMSO and their addition brought the final concentration of DMSO to 1%.

[9] = target: T3, fluorescein-labeled SSB C-terminal peptide, fluorescein-WMDFDDDIPF (E. coli); assay: equilibrium fluorescence anisotropy
T3 construct: also called F-WT; F-SSB-Ct
T3 peptide: fluorescein-WMDFDDDIPF

E. coli Exonuclease I = target: T4, E. coli Exonuclease I (Escherichia coli, UniProt P04995 1-475); assay: fluorescence polarization competition: unlabeled peptide titrated into 1 uM ExoI with 10 nM fluorescein-labeled SSB C-terminal peptide
T4 construct: also called ExoI; Exol
T4 sequence: B1 chain with A150E

[10] = read-out: IC50 μM inhibitor, inhibition of E. coli growth
[11] = read-out: IC(50) E. coli imp4213
[12] = Table 3, reduce growth 50% in liquid media, unit not given (Table 5 gives μM), read-out: IC(50) S. aureus
[13] = Table 5, read-out: IC50 μM inhibitor, inhibition of S. aureus growth
[14] = compound listing, bacterial growth in LB, read-out: IC50 Staphylococcus aureus
[15] = HT-29, Table 3, unit inferred, read-out: IC(50) Human cell line
[16] = HT-29 cells, CellTiter-Glo, read-out: IC50

Topoisomerase III (TopoIII)/C-terminal tail of E. coli SSB, sequence (P14294 whole entry): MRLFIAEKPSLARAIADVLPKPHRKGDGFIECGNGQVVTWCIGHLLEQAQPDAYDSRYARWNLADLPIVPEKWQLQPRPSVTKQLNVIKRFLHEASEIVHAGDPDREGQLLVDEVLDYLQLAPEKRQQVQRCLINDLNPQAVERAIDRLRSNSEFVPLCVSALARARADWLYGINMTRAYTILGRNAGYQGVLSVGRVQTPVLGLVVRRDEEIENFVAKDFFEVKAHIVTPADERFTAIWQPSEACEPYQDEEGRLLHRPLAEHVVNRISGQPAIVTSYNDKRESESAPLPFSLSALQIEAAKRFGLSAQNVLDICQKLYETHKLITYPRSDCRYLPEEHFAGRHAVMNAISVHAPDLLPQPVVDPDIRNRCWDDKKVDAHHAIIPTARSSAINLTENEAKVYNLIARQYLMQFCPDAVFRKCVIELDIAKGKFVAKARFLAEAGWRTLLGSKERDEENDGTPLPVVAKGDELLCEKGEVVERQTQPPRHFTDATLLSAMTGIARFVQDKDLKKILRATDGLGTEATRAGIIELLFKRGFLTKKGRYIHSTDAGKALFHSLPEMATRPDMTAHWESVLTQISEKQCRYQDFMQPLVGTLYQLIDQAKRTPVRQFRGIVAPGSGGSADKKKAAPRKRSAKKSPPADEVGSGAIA
T2 sequence (P04995 whole entry): as the sequence (P04995 whole entry, one chain of several) above

| Molecule | Ki [2] [µM] | Ki ([2]; Ki estimates, Table 2) [µM] | Ki ([2]; Ki, compound listing) [µM] | IC50 [3, 10] [µM] | IC50 ([3]; read-out: IC50 E. coli 4213) [µM] | IC50 [3, 11] [µM] | IC50 [4, 12] [µM] | IC50 [4, 13] [µM] | IC50 [4, 14] [µM] | MIC (E. coli (imp4213)) [µg/mL] | MIC (B. subtilis) [µg/mL] | IC50 [5, 15] [µM] | IC50 [5, 16] [µM] | Hemolysis (red blood cells) [µM] | other results |
| --- | --- | --- | --- | --- | --- | --- | --- | --- | --- | --- | --- | --- | --- | --- | --- |
| DDDIPF: unlabeled SSB C-terminal peptide with three residues (MDF) missing from the N-terminus [reference compound] |  |  |  |  |  |  |  |  |  |  |  |  |  |  | amount needed to titrate away the fluorescent peptide, relative to full-length peptide [1]: ten-fold more |
| CC(/C=C1\SC(=S)N(C(C(=O)O)c2ccccc2)C1=O)=C\c1ccccc1 (stereo not shown) [Compound 8, [5-(2-methyl-3-phenyl-2-propen-1-ylidene)-4-oxo-2-thioxo-1,3-thiazolidin-3-yl](phenyl)acetic acid] | 4 | 4 | ~4 | 11 | 11 | 11 | 29 | 30 | 29 | 4 (≈ 10.1 µM) | 6.3 (≈ 15.9 µM) | > 100 | > 100 | ~200 | Bactericidal for B. subtilis (B. subtilis): Compound 8; also called MPTA. Came from original Maybridge HTS collection. Bactericidal for B. subtilis; % hemolysis at given concentration (red blood cells; 200 μM): estimated 0% 200; % hemolysis at given concentration (red blood cells; 400 μM): estimated 90% 400 uM |
| WDFMDDPFID [F-mixed] |  |  |  |  |  |  |  |  |  |  |  |  |  |  | ExoI binding to control peptides relative to F-SSB-Ct (ExoI): minimal |
| O=C(O)C(Cc1ccccc1)N1C(=O)/C(=C/c2cccc(Br)c2)SC1=S (stereo not shown) [Compound 3, 2-[5-(3-bromobenzylidene)-4-oxo-2-thioxo-1,3-thiazolidin-3-yl]-3-phenylpropanoic acid] | 2.5 | 2.5 | ~2.5 | 6 | 5.5 | 6 | 9 | 9 | 10 | 3.6 (≈ 8.03 µM) | 3.6 (≈ 8.03 µM) | 12 | > 100 | ~100 | Bactericidal for B. subtilis (B. subtilis): Compound 3; also called BOTP. Came from original Maybridge HTS collection. Bactericidal for B. subtilis; % hemolysis at given concentration (red blood cells; 100 μM): 20% 100 |
| E. coli single-stranded DNA-binding protein (from UniProt P0AGE0 2-178) |  |  |  |  |  |  |  |  |  |  |  |  |  |  | ExoI nuclease activity on radiolabeled ssDNA, stimulation by SSB [6]: 4 fold; SSB-stimulated ExoI nuclease activity [7]: < 2 fold |
| COc1ccc(Nc2cc(C(F)(F)F)ccc2Cl)c(C(=O)O)c1 [Compound 10, 2-[2-chloro-5-(trifluoromethyl)anilino]-5-methoxybenzoic acid] | 0.1 | 0.35 | ~0.125 | 30 | 30 | 30 | 20 | 20 | 18 | 12.3 (≈ 35.6 µM) | 11.1 (≈ 32.1 µM) | > 100 | 60 | ~800 | growth on agar plates (B. subtilis): inhibited; growth on agar plates (Enterococcus faecalis): inhibited; growth on agar plates (Deinococcus radiodurans): inhibited; % hemolysis at given concentration (red blood cells; 400 μM): 0% 400; % hemolysis at given concentration (red blood cells; 800 μM): 85% at 800 μM; inhibition of fluorescent peptide binding to TopoIII (anisotropy) [8]: inhibit binding |
| CC(C)(C)C1=NN(c2nc3ccc(Cl)cc3s2)C(=O)C1 [Compound 9, 3-(tert-butyl)-1-(6-chloro-1,3-benzothiazol-2-yl)-4,5-dihydro-1H-pyrazol-5-one] | 0.8 | 2.2 | ~0.773 | 6 | 6 | 6 | 6 | 6 | 5.5 | 9 (≈ 29.2 µM) | 6.2 (≈ 20.1 µM) | > 100 | 38 | >800 | growth on agar plates (B. subtilis): inhibited; growth on agar plates (Enterococcus faecalis): inhibited; growth on agar plates (Deinococcus radiodurans): inhibited; % hemolysis at given concentration (red blood cells; >800 μM): 0% >800 |
| B1 |  |  |  |  |  |  |  |  |  |  |  |  |  |  | fold enhanced binding relative to wild-type ExoI [9]: ~2 fold |
| B2 |  |  |  |  |  |  |  |  |  |  |  |  |  |  | fold binding defect [9]: 7 fold |
| B3 |  |  |  |  |  |  |  |  |  |  |  |  |  |  | fold enhanced binding relative to wild-type ExoI [9]: ~2 fold |
| B4 |  |  |  |  |  |  |  |  |  |  |  |  |  |  | Ki (E. coli Exonuclease I): 0.053 µM |
